Test in all cases: DTP human tumour cell line panel, 48 h
Experiment [1] has as its system A498 renal.
Experiment [2] concerns ACHN renal.
In experiment [3] the test system is HCC-2998 colon.
The subject of experiment [4] is HCT-116 colon.
In experiment [5] the test system is HOP-62 NSCLC.
The subject of experiment [6] is IGROV1 ovarian.
The subject of experiment [7] is NCI-H226 lung.
The test system of experiment [8] is OVCAR-5 ovarian.
In experiment [9] the test system is SF-268 CNS.
The subject of experiment [10] is SF-539 CNS.
In experiment [11] the test system is SK-MEL-28 melanoma.
Experiment [12] has as its system SNB-19 CNS.
Experiment [13] relates to SR leukemia.
Experiment [14] deals with SW-620 colon.
The subject of experiment [15] is DU-145 prostate.

SMILES strings stand for the structures.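 Following 48 hours of exposure in 96-well plates, responses at five concentrations were used to interpolate endpoints linearly. Definition used: TGI = concentration required for complete inhibition of growth.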

Broadly, the TGI is the concentration at which net growth stops. Higher therefore signals lower sensitivity of the cells. As for `COc1cccc2nc3cc(C)c(C)cc3nc12`, the TGI in experiment [1], in [2], in experiment [3], in [4], in experiment [5] and in [6] was greater than 100 µM each time. Moreover, the total growth inhibition concentration (TGI) in [7], in experiment [8], in [9], in [10], in [11] and in experiment [12] was greater than 100 µM each time. In addition, the TGI in [13] and in experiment [14] was greater than 100 µM throughout.

Regarding `CC(C)CCc1n[nH]c(=O)n1/N=C\c1ccccc1`, the TGI in experiment [1], in experiment [2], in [15], in experiment [3], in experiment [4] and in experiment [5] was greater than 100 µM throughout. In addition, the TGI in experiment [6], in [7], in experiment [8], in experiment [9], in [10] and in experiment [11] was greater than 100 µM in each case. Further, the TGI in experiment [12] and in [14] was greater than 100 µM throughout.

Consider `CC(C)C12C=CC(C)(CC1)n1c(=O)c3cc4ccccc4cc3c(=O)n12` (centres undefined), for which the TGI in experiment [1] was 79.1 µM; in experiment [2], greater than 100 µM; in experiment [3], greater than 100 µM; in [4], greater than 100 µM; in experiment [5] it was greater than 100 µM; in experiment [6] it was greater than 100 µM. Moreover, the TGI in experiment [7], in experiment [8], in experiment [9], in experiment [10], in experiment [11] and in experiment [12] was greater than 100 µM throughout. Besides, the TGI in experiment [13] and in experiment [14] was greater than 100 µM throughout.

For the molecule `C=CCCCC1CCCNC1=S` (centres undefined), the TGI in experiment [1], in experiment [2], in [15], in [3], in experiment [4] and in [5] was greater than 100 µM throughout. Further, the TGI in [6], in experiment [7], in experiment [8], in experiment [9], in experiment [10] and in experiment [11] was greater than 100 µM throughout. For the same molecule, the TGI in [12] and in [14] was greater than 100 µM in each case.

With `CCN(CC)CC(C(=O)Nc1c(C)cccc1C)/C(C)=N\NC(=O)c1ccncc1` (centres undefined), the TGI in [1], in experiment [2], in [3], in experiment [4], in [5] and in [6] was greater than 100 µM throughout. The TGI in experiment [7], in experiment [8], in experiment [9], in experiment [10], in experiment [11] and in experiment [12] was greater than 100 µM in each case. In [13], this molecule registered a total growth inhibition concentration (TGI) greater than 100 µM.

Consider `Cc1ccc(-c2c(C#N)c(N)nc3c2CCS(=O)(=O)c2ccccc2-3)cc1`, for which the TGI in [1], in [2], in experiment [15], in [3], in experiment [4] and in experiment [6] was greater than 100 µM in each case. Moreover, the TGI in experiment [7], in [9], in [11], in experiment [12] and in experiment [14] was greater than 100 µM in each case.

Regarding `CCOC(=O)C1(C/C=C\CBr)CCCCCCCCCCC1=O` (centres undefined), the TGI in experiment [1] is 29.1 µM; in experiment [2], 32 µM; in experiment [15], 31.9 µM; in [3], 30.2 µM; in [4], greater than 54.2 µM; in experiment [5], 34.7 µM. The TGI in experiment [6] was 11.5 µM; in experiment [7] it was 16.6 µM; in experiment [8], 35.2 µM; in [9], 27.6 µM; in experiment [10], 14.8 µM; in experiment [11], 30.7 µM. Also, the TGI in experiment [12] stood at 36.6 µM; in experiment [14] it was 30.1 µM.

As for `c1ccc(C2OCCO2)c(OCCOc2cc(OCCOc3ccccc3C3OCCO3)c(OCCOc3ccccc3C3OCCO3)cc2OCCOc2ccccc2C2OCCO2)c1`, the TGI was 35.4 µM in experiment [1]; greater than 100 µM in [2]; 44.2 µM in experiment [4]; 28.6 µM in experiment [5]; 28.6 µM in experiment [6]; 47.3 µM in experiment [7]. For the same molecule, the concentration for total growth inhibition (TGI) in experiment [8] is greater than 100 µM; in [9], 66.5 µM; in [10] it was 32.7 µM; in experiment [11], greater than 100 µM; in experiment [13] it was greater than 100 µM; in [14], greater than 100 µM.

For `CCC(=O)N(O)C(C)(C)C`, the TGI in experiment [2], in experiment [3], in [4], in experiment [5], in [6] and in experiment [7] was greater than 100 µM throughout. For the same molecule, the TGI in experiment [8], in experiment [9], in [10], in [11], in experiment [12] and in [13] was greater than 100 µM each time. Further, the TGI in experiment [14] is greater than 100 µM.

For the molecule `COC(=O)C1(Cc2ccc3c(c2)CCC3)Cc2ccc3c(c2C1)CCC3` (centres undefined), the TGI in experiment [1] was 72.2 µM; in [2], 73.2 µM; in experiment [15] it was greater than 100 µM; in experiment [3] it was greater than 100 µM; in [4] it was 54.8 µM; in experiment [5] it was greater than 100 µM. Also, the total growth inhibition concentration (TGI) was 74.6 µM in [6]; 66 µM in experiment [7]; greater than 100 µM in experiment [9]; greater than 100 µM in experiment [10]; greater than 100 µM in experiment [11]; 69.7 µM in experiment [14].

Regarding `CC1(C)OC(=O)C2(O1)C(=O)C1CCCCC12` (centres undefined), the TGI in experiment [1], in [2], in experiment [15], in experiment [3], in experiment [4] and in experiment [5] was greater than 100 µM throughout. Moreover, the TGI in experiment [6], in [7], in experiment [8], in experiment [9], in experiment [11] and in experiment [12] was greater than 100 µM throughout. In experiment [14], the TGI was greater than 100 µM.

These data come from PubChem BioAssay (NCI).
